Laboratory results from patent US20050031715A1, “Natural preservative comprising heated garlic extract and method for preparing thereof” (SEJONG UNIVERSITY, priority 2003, published 2005).

Experiments:
Assay type in all cases: cell-based
[1] = system: Enterobacter aerogenes B146; assay: MIC, viable count method; settings: 24 hrs, heated garlic: 121° C. for 45 min
Procedure: (§1) In order to compare the antibacterial activity and the antifungal activity of the garlic extract of Example 1 prepared by heating at 121° C., according to the heating time, MIC (minimum inhibitory concentration) was measured for the samples of the heated garlic extract. The MIC represents minimum concentration of material to inhibit the growth of certain type of microorganism. It is understood that the lower the MIC of a material, the higher the antimicrobial activity of the material. The inhibition of microbial growth was measured by viable count method based on Spiral Autoplate System of Spiral Biotech Inc. Three separate experiments were carried out for each sample and the highest value was taken as the MIC of the sample.
(§2) Antimicrobial activity was measured for the garlic extract heated at 121° C. for 45 min of Example 1, the fresh garlic extract and the AITC solution which had been prepared in Comparative Examples. Conditions for the viable count method, the medium and initial number of microorganisms inoculated were the same as those described in the above Test Examples. The MIC was measured at 24 hrs or 48 hrs after incubating the bacteria or the yeasts, respectively.
(§3) Staphylococcus aureus B33, Escherichia coli B34, Enterobacter aerogenes B146, Leuconostoc mesenteroides LA10, Pediococcus pentosaceus LA3, Lactobacillus plantarum LA97, Pichia membranifaciens Y20, Saccharomyces cerevisiae ATCC 4126 and Candida utilis ATCC 42416 used in this Test Example were kindly provided from Dr. Henry P. Fleming at the Food Fermentation Laboratory of the North Carolina State University in USA. Candida albicans HY1 was separated from an infant with oral candidiasis. In addition, Candida albicans KCTC 7121 and 7965 were purchased from Korean Collection for Type Cultures (KCTC) and Zygosaccharomyces bisporus KCCM 50168, Zygosaccharomyces rouxii (soya) KCCM 11300, Zygosaccharomyces rouxii KCCM 11303, Zygosaccharomyces rouxii (sake) KCCM 50523 and Zygosaccharomyces rouxii (gracilis) KCCM 50546 were obtained from KCCM (Korean Culture Center of Microorganisms).

[2] = system: Saccharomyces cerevisiae ATCC 4126; assay: MIC, viable count method; settings: 48 hrs, heated garlic: 121° C. for 45 min
Procedure: as §1, §2, §3

[3] = system: Zygosaccharomyces rouxii KCCM 11303; assay: MIC, viable count method; settings: 48 hrs, heated garlic: 121° C. for 45 min
Procedure: as §1, §2, §3

[4] = system: Candida albicans KCTC 7965; assay: MIC, viable count method; settings: 48 hrs, heated garlic: 121° C. for 45 min
Procedure: as §1, §2, §3

[5] = system: Leuconostoc mesenteroides LA10; assay: MIC, viable count method; settings: 24 hrs, heated garlic: 121° C. for 45 min
Procedure: as §1, §2, §3

[6] = system: Candida albicans (Clinical); assay: MIC, viable count method; settings: 48 hrs, heated garlic: 121° C. for 45 min
Procedure: as §1, §2, §3

[7] = system: Zygosaccharomyces bisporus KCCM 50168; assay: MIC, viable count method; settings: 48 hrs, heated garlic: 121° C. for 45 min
Procedure: as §1, §2, §3

[8] = system: Candida utilis ATCC 42416; assay: MIC, viable count method; settings: 48 hrs, heated garlic: 121° C. for 45 min
Procedure: as §1, §2, §3

[9] = system: Pediococcus pentosaceus LA3; assay: MIC, viable count method; settings: 24 hrs, heated garlic: 121° C. for 45 min
Procedure: as §1, §2, §3

[10] = system: Candida albicans KCTC 7121; assay: MIC, viable count method; settings: 48 hrs, heated garlic: 121° C. for 45 min
Procedure: as §1, §2, §3

[11] = system: Lactobacillus plantarum LA97; assay: MIC, viable count method; settings: 24 hrs, heated garlic: 121° C. for 45 min
Procedure: as §1, §2, §3

[12] = system: Pichia membranefaciens Y20; assay: MIC, viable count method; settings: 48 hrs, heated garlic: 121° C. for 45 min
Procedure: as §1, §2, §3

[13] = system: Zygosaccharomyces rouxii KCCM 50546; assay: MIC, viable count method; settings: 48 hrs, heated garlic: 121° C. for 45 min
Procedure: as §1, §2, §3

Escherichia coli B34 = assay: MIC, viable count method; settings: 24 hrs, heated garlic: 121° C. for 45 min
Procedure: as §1, §2, §3

[14] = system: Zygosaccharomyces rouxii KCCM 50523; assay: MIC, viable count method; settings: 48 hrs, heated garlic: 121° C. for 45 min
Procedure: as §1, §2, §3

[15] = system: Staphylococcus aureus B33; assay: MIC, viable count method; settings: 24 hrs, heated garlic: 121° C. for 45 min
Procedure: as §1, §2, §3

[16] = system: Zygosaccharomyces rouxii KCCM 11300; assay: MIC, viable count method; settings: 48 hrs, heated garlic: 121° C. for 45 min
Procedure: as §1, §2, §3

[17] = system: Candida utilis ATCC 42416; assay: Antimicrobial activity (MIC) over storage time at 37° C.; settings: stored at 37° C., 30 days, heated extract: 121° C. for 120 min
Procedure: as §1
Antimicrobial activity of the garlic extract prepared by heating at 121° C. for 120 min in Example 1, the fresh garlic extract and the AITC solution was measured for Candida utilis ATCC 42416, over storage time. Candida utilis ATCC 42416 used in this Test Example was kindly provided from Dr. Henry P. Fleming at the Food Fermentation Laboratory of the North Carolina State University in USA. […] From the first day to the 30th day of the storage, the MIC was measured everyday or every two days using the viable count method described in Test Example 1.

[18] = system: Candida utilis ATCC 42416; assay: Antimicrobial activity (log CFU/Ml) over pH condition; settings: 30° C., 24 hrs
Procedure: Antimicrobial activity of the garlic extract heated at 121° C. for 120 min in Example 1 was measured for Candida utilis ATCC 42416, under various pH conditions. […] For a control, YMPGB medium without comprising any preservative was used. Candida utilis ATCC 42416 used in this Test Example was kindly provided from Dr. Henry P. Fleming at the Food Fermentation Laboratory of the North Carolina State University in USA. […] Then, Candida utilis ATCC 42416 was inoculated with an initial number of 2.1-2.3×10^5 CFU/mL and subsequently incubated at 30° C. for 24 hrs. After completing the incubation, the value of log CFU/Ml was measured by using the viable count method described above.

C=CCN=C=S [AITC solution, allyl isothiocyanate]
MIC [1]: 0.02 ± 0.002 volume %
MIC [2]: 0.0002 ± 0.0001 volume %
MIC [3]: 0.0004 ± 0.0001 volume %
MIC [4]: 0.0004 ± 0.0001 volume %
MIC [5]: 0.04 ± 0.0023 volume %
MIC [6]: 0.0003 ± 0 volume %
MIC [7]: 0.0002 ± 0 volume %
MIC [8]: 0.0004 ± 0.0001 volume %
MIC [9]: 0.02 ± 0.0012 volume %
MIC [10]: 0.0003 ± 0.0001 volume %
MIC [11]: 0.02 ± 0 volume %
MIC [12]: 0.0001 ± 0 volume %
MIC [13]: 0.0004 ± 0.0001 volume %
MIC (Escherichia coli B34): 0.01 ± 0.0006 volume %
MIC [14]: 0.0005 ± 0.0001 volume %
MIC [15]: 0.015 ± 0.0006 volume %
MIC [16]: 0.0002 ± 0 volume %
stability of antifungal activity over storage time [17]: very unstable

C/C=C/C=C/C(=O)[O-].[K+] [potassium sorbate]
antimicrobial activity, dependence on pH ([18]; pH 4 to 9, heated garlic extract (121° C., 120 min) 0.5 volume %, potassium sorbate 0.1 weight %): significantly affected by pH
antimicrobial activity at pH 5 ([18]; pH 5, 0.1 weight %): high
antimicrobial activity at pH 6 ([18]; pH 6, 0.1 weight %): dropped to almost zero
